Tests used:
[1] = tested on: stomata of M82 and rop9 mutant cotyledons; assay: Measurements of stomata aperture (width/length) in excised cotyledons; assay type: cell-based, Tomato (S. lycopersicum)
Protocol: […] assays were carried out as previously described (Puli, M. R. et al., J Exp Bot 63, 1349-1356, 2012). with the following modifications. Cotyledons were excised from M82 or rop9 mutants (10-15 days after sowing in soil) and were transferred immediately to stomatal opening buffer (10 mM MES-KOH, pH 7.0, 50 mM KCl) with or without ABA and treated for 3 h under light (110 to 120 μE m^−2 s^−1). Mock-treated controls were treated with 0.1% vol/vol ethanol. After 3 h, the abaxial epidermis of cotyledons was affixed to a glass slide with Telesis 5 silicone adhesive (Premiere Products) and bright-field images were taken with a Zeiss-LSM 780 NLO confocal microscope. For each biological replicate, width and length of 30 to 40 stomatal apertures were measured using Image J.

[2] = tested on: ROS levels in guard cells; assay: ROS measurements in guard cells (H2DCF fluorescence); assay type: cell-based, Tomato (S. lycopersicum)
Protocol: Reactive oxygen species (ROS) levels in guard cells were monitored using a fluorescence-based assay with 2′,7′-dichlorofluorescien diacetate (H2DCF-DA). Abaxial epidermises of cotyledons were mounted on microscope slides with medical adhesive Telesis V and loaded with stomatal opening buffer with 50 μM H2DCF-DA for 30 min. Excess H2DCF-DA was removed by washing with water, and samples were loaded with 0.1% ethanol (mock) or 10 μM ABA in opening buffer. After 15 min, fluorescence images were collected using a Zeiss-LSM 780 NLO confocal microscope. Fluorescence measured from about thirty stomata of each biological replicate was determined using Image J.

[3] = tested on: ROP activity in guard cells; assay: Distribution of GFP-ICR1ΔN ROP activity probe in guard cells; assay type: cell-based; conditions: Arabidopsis guard cells, 10 μM ABA, one hour
Protocol: Expression of GFP-ICR1ΔN was induced in 7-days old Arabidopsis seedlings with 5 μM β-estradiol dissolved in 99.5% DMSO. After 24 h of induction plants were treated with control (0.5× Murashige Skoog (MS) medium supplemented with 0.1% ETOH (control) or with 10 μM ABA dissolved in 0.1% ETOH. Analysis of GFP-ICR1ΔN distribution was carried out 1 h after treatments with control or ABA supplemented media using Zeiss LSM 780-NLO confocal microscope by excitation at 488 nm and emission spectrum at 501-546 nm using 40× and 63× water objectives. Image analyses were performed with ZEN 2012 Digital Imaging and Image J.
To follow the regulation of ROP activity in guard cells a fluorescent probe which is specifically expressed in guard cells was generated. The probe consists GFP fused to the […] C-terminal residues of ROP effector ICR1 (between residues 171-344) and was designated GFP-ICRΔN. […] To prevent possible steric hindrance of the ICRΔN moiety by GFP, a flexible linker consisting of 3 repeats of (Gly)4Ser (3×GGGGS) sequence were cloned between the ICRΔN and the GFP moieties. To prevent negative effects that could occur due to long-term expression of a ROP effector, the expression of the probe was induced by estradiol under regulation of the ROP11 promoter. […] The distribution of the probe between the membrane and cytoplasm reflected the degree of ROP activation. […]

M82 seeds = assay: Seed germination assay on ABA-supplemented medium; assay type: in vivo, Tomato (S. lycopersicum); conditions: 5 μM ABA, seven days
Protocol: Seeds of M82 and rop9 mutant plants (50 seeds per genotype) were surface sterilized for 2 min in ethanol followed by 20 min in 3% sodium hypochlorite, washed with excess of water (˜100 ml) and sown on 0.5×MS+1% agar plates (without sucrose) supplemented with 0.1% ethanol (mock) or 1 or 5 μM ABA (in 0.1% ethanol). Seeds were kept at 4° C. for 48 h for […] and moved to 25° C. in the dark for germination. The percentage of seeds germinated were determined after seven days.

[4] = tested on: P5CS1 and RAB18 expression; assay: QPCR of ABA-responsive genes; assay type: cell-based, Tomato (S. lycopersicum); conditions: M82, rop9-1 and rop9-4 cotyledons, 50 μM ABA
Protocol: For expression of ABA induced genes, total RNA was extracted from mock-treated or ABA-treated cotyledons or from 2- to 3-week-old soil-grown plants using the RNeasy Plant Mini Kit (Qiagen). cDNAs were prepared using the High-capacity cDNA Reverse Transcription Kit (Applied Biosystems). Oligonucleotide primers for tubulin, P5CS1, and RAB18 were identical to those used by Nir et al. (2017, ibid). Expression was normalized to tubulin. Gene expression of the M82 mock-treated samples was set to 1, and then remaining samples were calculated proportionately. Data are the means (±SE) of three independent biological replicates.

[5] = tested on: M82 and rop9 mutant seedlings; assay: Primary root elongation assay; assay type: in vivo, Tomato (S. lycopersicum); conditions: 1 or 5 μM ABA, 48 h
Protocol: Seven-day-old M82 and rop9 mutant seedlings were transferred to 0.5×MS+1% agar plates (without sucrose) supplemented with 0.1% ethanol (mock) or 1 or 5 μM ABA in 0.1% ethanol, and root lengths were marked. Root elongation was measured after 48 h.

| SMILES | stomata aperture (width/length) ([1]; M82, rop9-1 and rop9-4 cells, 10 μM ABA (positive control)) | stomata aperture (width/length) ([1]; M82 cotyledons, 1 or 10 μM ABA, 3 h under light) | H2DCF signal ([2]; M82 guard cells, 10 μM ABA, 15 min) | H2DCF signal ([2]; rop9-1 and rop9-4 guard cells, 10 μM ABA, 15 min) | distribution of the probe between plasma membrane and cytoplasm [3] | seed germination (M82 seeds) | expression of P5CS1 and RAB18 [4] | root elongation [5] | stomata aperture (width/length) ([1]; M82 stomata, 5 μM DPI) | stomata aperture (width/length) ([1]; rop9-1 and rop9-4 stomata, 5 μM DPI) | H2DCF signal ([2]; rop9-1 and rop9-4 guard cells treated with ABA, 5 μM DPI) |
| --- | --- | --- | --- | --- | --- | --- | --- | --- | --- | --- | --- |
| CC1=CC(=O)CC(C)(C)[C@@]1(O)/C=C/C(C)=C\C(=O)O [ABA, Abscisic acid] | expected closing of stomata were observed | induced stomata closure | induced significant enhancement | significantly reduced the signal | significant shift of the probe from the plasma membrane to the cytoplasm | significantly inhibited | induced to a similar extent by ABA in both wild-type and mutant leaves | inhibited to a similar extent in M82 and the rop9 mutants | – | – | – |
| c1ccc2c(c1)[I+]c1ccccc1-2 [DPI, Diphenyleneiodonium chloride] | – | – | – | – | – | – | – | – | had no effect | induced opening | decreased the H2DCF signal |
